# Source: patent US11413348B2, “Low molecular weight cationic lipids for oligonucleotide delivery” (SIRNA THERAPEUTICS, INC., priority 2010, dated 2022)
# Legend:
# serum ApoE = target: T1, serum ApoE (Macaca mulatta, UniProt Q28502); assay: Heparin Sepharose HI-TRAP binding assay; design: species or system rhesus monkey; settings: HI-TRAP binding upon rhesus serum incubation, 2×DPBS conditions
# T1 construct: from tissue; host or cells: rhesus monkey serum
# Description: Lipid nanoparticles (LNP) with neutral surface charge are not retained after injection onto heparin sepharose with 1× Dulbecco's phosphate buffered saline (DPBS) as the running buffer but elute in the column void volume. […] Lipid nanoparticles with surface bound ApoE bind to heparin sepharose with high affinity and are eluted only at high salt (1M NaCl).
# Lipid nanoparticles were incubated at 37° C. for 20 min at a final siRNA concentration of 50 μg/mL with various concentrations of either purified or recombinant human apolipoprotein E or 0.1-50% rat/mouse/rhesus monkey/human serum in 1× Dulbccco's phosphate buffered saline (DPBS). After incubation with ApoE or serum LNP samples were diluted 10-fold using 1×DPBS and analyzed by heparin sepharose chromatography. Peak area of retained LNP (after subtraction of appropriate blank signals) is compared to total peak area of LNP control without ApoE and/or serum incubation to determine the percentage of the LNP which undergoes shift to high affinity heparin interaction after incubation with ApoE/serum.
# A heparin sepharose HI-TRAP™ chromatography column (GE Healthcare; 1 mL bed volume) is equilibrated with either 1× or 2× Dulbecco's PBS; the higher 2× salt concentration is used for LNPs with higher intrinsic retention on heparin sepharose (presumably due to higher positive surface charge). • Mobile Phase A: 1× or 2×DPBS • Mobile Phase B: 1M NaCl in 10 mM sodium phosphate buffer, pH 7.0 • 100% A delivered isocratically for 10 min followed by step gradient to 100% B; hold for additional 10 min; step gradient back to 100% A and reequilibrate for additional 10 min prior to injection of next sample • Flow rate: 1 mL/min • Sample injection volume: 50 μL. • Detection: UV @260 nm HI-TRAP™ Binding Results Upon Rhesus Serum Incubation (2×DPBS Conditions)
# ApoE = target: T2, ApoE (Macaca mulatta, UniProt Q28502); assay: In vitro ApoE binding assay (anti-PEG capture, ApoE ELISA, stem-loop RT-PCR); settings: LNP 4 ug/mL in 90% rhesus serum, 37° C., 20 minutes; estimate of 500 siRNA per LNP
# T2 construct: from tissue; host or cells: rhesus serum
# T2 sequence (Q28502 19-295): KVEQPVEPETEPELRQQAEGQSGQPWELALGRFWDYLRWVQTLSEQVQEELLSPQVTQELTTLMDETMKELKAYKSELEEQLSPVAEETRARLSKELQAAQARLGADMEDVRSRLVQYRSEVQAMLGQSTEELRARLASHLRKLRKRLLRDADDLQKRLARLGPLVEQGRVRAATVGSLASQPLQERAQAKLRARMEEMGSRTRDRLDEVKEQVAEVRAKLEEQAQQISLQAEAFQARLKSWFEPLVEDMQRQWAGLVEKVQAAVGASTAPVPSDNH
# Description: LNPs are incubated at 37° C. in 90% rhesus serum at a final LNP concentration of 4 ug/mL. Incubation is for 20 minutes with orbital rotation. After incubation, the samples are diluted 1:20 in PBS and 100 uL of each diluted sample is aliquoted to wells of an anti-PEG antibody coated 96-well plate (Life Diagnostics Cat. No. P-0001PL. After incubation at room temperature for 1 hour, the plate is washed 5× with 300 uL PBS. After washing, 50 uL of 0.2% Triton X-100 is added to each well and the plate incubated at 37° C. for 10 minutes, followed by shaking on a plate shaker for 1 minute at 750 rpm. Samples are frozen prior to performing the ApoE ELISA and stem loop PCR analysis of samples.
# An ApoE ELISA assay is performed to quantitate ApoE bound to the LNPs after incubation in rhesus serum. Anti-ApoE antibody (Milipore, Cat No. AB947) is diluted 1:1000 in PBS and 100 uL of diluted antibody is added to each well of a polystyrene high binding plate. The plate with antibody is incubated overnight at 4° C., after which the plate is washed 2× with 200 uL of PBS. Next, 200 uL of buffer containing 1% BSA and 0.05% Tween-20 in PBS (Incubation Buffer) is added to each well followed by incubation at room temperature for 1 hour. Plates are washed 5× with PBS containing 0.05% Tween-20. Frozen Triton lysis test samples are thawed and diluted 1:6 with incubation buffer and 100 uL of test sample is aliquoted to wells of the ApoE antibody plate. Incubation is for 1 hour at room temperature followed by a 5× wash with PBS containing 0.05% Tween-20. After washing, 100 uL of biotinylated anti-ApoE antibody (Mabtech, Cat. ANo. E887-biotin), diluted 1:500 in incubation buffer, is added to each well and incubated for 1 hour at room temperature, followed by a 5× wash with 0.05% Tween-20 in PBS. 100 uL per well, of Streptavidin-HPR (Thermo, Cat. No. TS-125-HR), is then added and incubated for 1 hour at room temperature. After washing 5× with 0.05% Tween-20 in PBS, 100 uL of TMB Substrate (Thermo, Cat. No. 34028) is added to each well, followed by incubation at room temperature for 20 minutes in the dark. The calorimetric reaction is slopped with 100 uL of TMB Stop Solution (KPL, Cat. No. 50-85-04) and absorbance at 450 nm is determined. An ApoE standard curve is prepared by diluting rhesus Recombinant ApoE in incubation buffer with 0.03% Triton X-100 with concentrations ranging from 100 ng/mL to 0.78 ng/mL. ApoE standards are evaluated in the ELISA in parallel to the test samples. A rhesus serum only (no LNP) control is utilized to obtain a background subtraction for non-LNP dependent ApoE signal in the ELISA.
# To normalize to the ApoE bound to the amount of LNP bound to the anti-PEG antibody plate, the amount of siRNA retained in the anti-PEG antibody well is quantitated by stem-loop PCR and related to the number of siRNAs encapsulated per LNP, to give an approximate measure of total LNP particles bound per well.
# The standard curve is prepared using the molecular weight of the siRNA (13693 g/mol for ApoB 17063) to calculate the copy number. The high standard should contain 10^11 copies per 3 μl. A 10-fold serial dilution is performed across a row of an assay plate until the lowest standard contains 10^2 copies per 3 μl. Dilute 0.2% Triton X-100 1:80 in water and pipette 20 uL of the diluted Triton X-100 into 10 wells of a 96 well plate. 30 uL of the serial diluted standard curve and mix are added to each well of the plate. 10 uL of the spiked standard curve is used in the reverse transcription reaction.
# Triton lysates from the PEG antibody plate capture are diluted 1 to 2000 in nuclease free water. 10 uL of ‘RT-Primer Mix’ (Applied Biosystem's TaqMan MicroRNA Reverse Transcription Kit Cat. No. 4366596) is added to each well of a 96-well Micro-Amp QPCR plate (ABI Cat #N801-0560).
# […] of each test sample (diluted 1 to 2000) or spiked standard curve (above) are aliquoted into the 96-well plate. […]
# T1 sequence (Q28502 19-295): as above
smiles,measurement,setting,value
"CCCCC/C=C\C/C=C\CCCCCCCCCC(CCCCCCCCC)CCN(C)C (stereo not shown) [Compound 32, (13Z,16Z)—N,N-dimethyl-3-nonyldocosa-13,16-dien-1-amine]",% Bound,serum ApoE,100%
same,ApoE Molecules/LNP,ApoE,12.8 Molecules/LNP
"CCCCCCCCCC(CCCCCCCC1CC1CCCCCCCC)N(C)C [Compound 33, N,N-dimethyl-1-[(1S,2R)-2-octylcyclopropyl]hepladecan-8-amine]",% Bound,serum ApoE,<5%
same,ApoE Molecules/LNP,ApoE,18.1 Molecules/LNP
